Experimental data as given in PubChem BioAssay AID248 (DTP/NCI, 2004).
Several values for one entry are separate records, joined by “and”; a condition that tells them apart may be missing. Identical values can stand only once. Inconclusive results and toxic doses are left out. No stated cut-off is given here; in the data, active means T/C of 150% or more; inactive means T/C below 125%.

System: L1210 leukemia ip in BDF1 mice, survival T/C
Test: NCI In Vivo Anticancer Drug Screen. Data for tumor model L1210 Leukemia (intraperitoneal) in B6D2F1 (BDF1) mice
Conditions: higher = longer survival
Method in brief: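 Transplanted-tumor mice were given test agent; controls received vehicle only. Survival readings from the two groups were divided (treated over control).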

[1] = endpoint: mean survival time, dose: 100.0 mg/kg/injection, schedule: Q04DX003 (ip), vehicle: saline
[2] = endpoint: mean survival time, dose: 200.0 mg/kg/injection, schedule: Q04DX003 (ip), vehicle: saline
[3] = endpoint: mean survival time, dose: 400.0 mg/kg/injection, schedule: Q04DX003 (ip), vehicle: saline

Measured: T/C

Cc1c(N)nc([C@H](CC(N)=O)NC[C@H](N)C(N)=O)nc1C(=O)N[C@H](C(=O)N[C@H](C)[C@@H](O)[C@H](C)C(=O)N[C@H](C(=O)NCCc1nc(-c2nc(C(=O)NCCC[S+](C)C)cs2)cs1)[C@@H](C)O)C(OC1OC(CO)C(O)C(O)C1OC1OC(CO)C(O)C(OC(N)=O)C1O)c1cnc[nH]1 (stereo partly drawn)
inactive: endpoint: mean survival time, dose: 0.35 mg/kg/injection, schedule: Q01DX009 (ip), vehicle: saline 99 % of control and 100 % of control | endpoint: mean survival time, dose: 0.7 mg/kg/injection, schedule: Q01DX009 (ip), vehicle: saline 100 % of control | endpoint: mean survival time, dose: 1.3 mg/kg/injection, schedule: Q01DX009 (ip), vehicle: saline 99 % of control and 107 % of control | endpoint: mean survival time, dose: 2.0 mg/kg/injection, schedule: Q01DX009 (ip), vehicle: saline 101 % of control | endpoint: mean survival time, dose: 2.0 mg/kg/injection, schedule: Q04DX002 (ip), vehicle: saline 97 % of control | endpoint: mean survival time, dose: 2.5 mg/kg/injection, schedule: Q01DX009 (ip), vehicle: saline 110 % of control and 119 % of control | endpoint: mean survival time, dose: 4.0 mg/kg/injection, schedule: Q01DX009 (ip), vehicle: saline 107 % of control and 109 % of control and 112 % of control | endpoint: mean survival time, dose: 4.0 mg/kg/injection, schedule: Q04DX002 (ip), vehicle: saline 103 % of control and 105 % of control | endpoint: mean survival time, dose: 5.0 mg/kg/injection, schedule: Q01DX009 (ip), vehicle: saline 94 % of control and 107 % of control | endpoint: mean survival time, dose: 5.8 mg/kg/injection, schedule: Q01DX009 (ip), vehicle: clinical formulation 93 % of control | endpoint: mean survival time, dose: 7.81 mg/kg/injection, schedule: Q01DX009 (ip), vehicle: saline 109 % of control | endpoint: mean survival time, dose: 8.0 mg/kg/injection, schedule: Q01DX009 (ip), vehicle: saline 104 % of control and 109 % of control and 110 % of control | endpoint: mean survival time, dose: 8.0 mg/kg/injection, schedule: Q04DX002 (ip), vehicle: saline 100 % of control and 108 % of control | endpoint: mean survival time, dose: 8.7 mg/kg/injection, schedule: Q01DX009 (ip), vehicle: clinical formulation 95 % of control | endpoint: mean survival time, dose: 10.0 mg/kg/injection, schedule: Q01DX009 (ip), vehicle: saline 106 % of control and 110 % of control | endpoint: mean survival time, dose: 13.0 mg/kg/injection, schedule: Q01DX009 (ip), vehicle: clinical formulation 92 % of control | endpoint: mean survival time, dose: 15.62 mg/kg/injection, schedule: Q01DX009 (ip), vehicle: saline 104 % of control | endpoint: mean survival time, dose: 16.0 mg/kg/injection, schedule: Q01DX009 (ip), vehicle: saline 93 % of control and 108 % of control and 114 % of control | endpoint: mean survival time, dose: 16.0 mg/kg/injection, schedule: Q04DX002 (ip), vehicle: saline 97 % of control and 103 % of control | endpoint: mean survival time, dose: 20.0 mg/kg/injection, schedule: Q01DX009 (ip), vehicle: clinical formulation 93 % of control | endpoint: mean survival time, dose: 30.0 mg/kg/injection, schedule: Q01DX009 (ip), vehicle: clinical formulation 87 % of control | endpoint: mean survival time, dose: 31.0 mg/kg/injection, schedule: Q04DX002 (ip), vehicle: saline 103 % of control and 106 % of control | endpoint: mean survival time, dose: 31.25 mg/kg/injection, schedule: Q01DX001 (ip), vehicle: saline 100 % of control | endpoint: mean survival time, dose: 31.25 mg/kg/injection, schedule: Q01DX009 (ip), vehicle: saline 116 % of control | endpoint: mean survival time, dose: 32.0 mg/kg/injection, schedule: Q01DX009 (ip), vehicle: saline 113 % of control and 91 % of control and 92 % of control | endpoint: mean survival time, dose: 62.0 mg/kg/injection, schedule: Q04DX002 (ip), vehicle: saline 93 % of control and 101 % of control | endpoint: mean survival time, dose: 62.5 mg/kg/injection, schedule: Q01DX001 (ip), vehicle: saline 122 % of control | endpoint: mean survival time, dose: 62.5 mg/kg/injection, schedule: Q01DX009 (ip), vehicle: saline 107 % of control | endpoint: mean survival time, dose: 125.0 mg/kg/injection, schedule: Q01DX001 (ip), vehicle: saline 106 % of control | endpoint: mean survival time, dose: 125.0 mg/kg/injection, schedule: Q01DX009 (ip), vehicle: saline 97 % of control | endpoint: mean survival time, dose: 250.0 mg/kg/injection, schedule: Q01DX001 (ip), vehicle: saline 106 % of control | endpoint: median survival time, dose: 3.0 mg/kg/injection, schedule: Q01DX009 (ip), vehicle: saline 99 % of control | endpoint: median survival time, dose: 4.0 mg/kg/injection, schedule: Q01DX009 (ip), vehicle: saline 100 % of control and 110 % of control | endpoint: median survival time, dose: 5.0 mg/kg/injection, schedule: Q01DX009 (ip), vehicle: saline 101 % of control | endpoint: median survival time, dose: 8.0 mg/kg/injection, schedule: Q01DX009 (ip), vehicle: saline 106 % of control and 120 % of control | endpoint: median survival time, dose: 8.4 mg/kg/injection, schedule: Q01DX009 (ip), vehicle: saline 98 % of control | endpoint: median survival time, dose: 14.0 mg/kg/injection, schedule: Q01DX009 (ip), vehicle: saline 96 % of control | endpoint: median survival time, dose: 16.0 mg/kg/injection, schedule: Q01DX009 (ip), vehicle: saline 106 % of control | endpoint: median survival time, dose: 23.0 mg/kg/injection, schedule: Q01DX009 (ip), vehicle: saline 96 % of control | endpoint: median survival time, dose: 32.0 mg/kg/injection, schedule: Q01DX009 (ip), vehicle: saline 100 % of control | endpoint: median survival time, dose: 39.0 mg/kg/injection, schedule: Q01DX009 (ip), vehicle: saline 88 % of control

O=C(O)C1c2ccccc2-c2ccccc21
inactive: endpoint: mean survival time, dose: 100.0 mg/kg/injection, schedule: Q01DX001 (ip), vehicle: saline 113 % of control | endpoint: mean survival time, dose: 200.0 mg/kg/injection, schedule: Q01DX001 (ip), vehicle: saline 91 % of control | endpoint: mean survival time, dose: 400.0 mg/kg/injection, schedule: Q01DX001 (ip), vehicle: saline 101 % of control

CC(=O)Nc1nn[nH]n1
inactive: endpoint: mean survival time, dose: 100.0 mg/kg/injection, schedule: Q01DX001 (ip), vehicle: other 93 % of control | endpoint: mean survival time, dose: 100.0 mg/kg/injection, schedule: Q01DX009 (ip), vehicle: Klucel (hydroxypropylcellulose) (HPC) 90 % of control | endpoint: mean survival time, dose: 100.0 mg/kg/injection, schedule: Q04DX003 (ip), vehicle: saline with Tween-80 94 % of control | endpoint: mean survival time, dose: 200.0 mg/kg/injection, schedule: Q01DX001 (ip), vehicle: other 96 % of control | endpoint: mean survival time, dose: 200.0 mg/kg/injection, schedule: Q01DX009 (ip), vehicle: Klucel (hydroxypropylcellulose) (HPC) 91 % of control | endpoint: mean survival time, dose: 200.0 mg/kg/injection, schedule: Q04DX003 (ip), vehicle: saline with Tween-80 94 % of control | endpoint: mean survival time, dose: 400.0 mg/kg/injection, schedule: Q01DX001 (ip), vehicle: other 96 % of control | endpoint: mean survival time, dose: 400.0 mg/kg/injection, schedule: Q04DX003 (ip), vehicle: saline with Tween-80 90 % of control

c1ccc(C2=C(c3ccccc3)SC(c3ccccc3)=C(c3ccccc3)S2)cc1
inactive: [1] 102 % of control | [2] 98 % of control | [3] 104 % of control

Nc1nc(=S)c2[nH]c(=S)[nH]c2[nH]1
inactive: endpoint: mean survival time, dose: 12.0 mg/kg/injection, schedule: Q01DX009 (ip), vehicle: saline 119 % of control | endpoint: mean survival time, dose: 15.0 mg/kg/injection, schedule: Q01DX Z (ip), vehicle: saline 119 % of control | endpoint: mean survival time, dose: 23.0 mg/kg/injection, schedule: Q01DX Z (ip), vehicle: saline 124 % of control | endpoint: mean survival time, dose: 175.0 mg/kg/injection, schedule: Q01DX001 (ip), vehicle: saline 121 % of control | endpoint: mean survival time, dose: 400.0 mg/kg/injection, schedule: Q01DX Z (ip), vehicle: carboxymethylcellulose (CMC) 98 % of control

O=C(O)c1ccnc(C(=O)O)c1
inactive: endpoint: mean survival time, dose: 100.0 mg/kg/injection, schedule: Q01DX009 (ip), vehicle: saline 89 % of control | endpoint: mean survival time, dose: 100.0 mg/kg/injection, schedule: Q04DX003 (ip), vehicle: saline sonified 98 % of control | endpoint: mean survival time, dose: 200.0 mg/kg/injection, schedule: Q01DX009 (ip), vehicle: saline 93 % of control | endpoint: mean survival time, dose: 200.0 mg/kg/injection, schedule: Q04DX003 (ip), vehicle: saline sonified 93 % of control | endpoint: mean survival time, dose: 400.0 mg/kg/injection, schedule: Q01DX009 (ip), vehicle: saline 97 % of control | endpoint: mean survival time, dose: 400.0 mg/kg/injection, schedule: Q04DX003 (ip), vehicle: saline sonified 92 % of control

CC(=O)c1ccc(N2CCN(c3ccc(C(C)=O)cc3)CC2)cc1
inactive: [1] 93 % of control | [2] 95 % of control | [3] 98 % of control

O=C(NO)Nc1nc(Cl)c(Cl)nc1Cl
inactive: endpoint: mean survival time, dose: 25.0 mg/kg/injection, schedule: Q01DX009 (ip), vehicle: water 94 % of control | endpoint: mean survival time, dose: 50.0 mg/kg/injection, schedule: Q01DX009 (ip), vehicle: water 100 % of control

O=C(Nc1cccc(C(F)(F)F)c1)Nc1ccc(Cl)c(Cl)c1
inactive: endpoint: mean survival time, dose: 50.0 mg/kg/injection, schedule: Q01DX001 (ip), vehicle: carboxymethylcellulose (CMC) 96 % of control | endpoint: mean survival time, dose: 100.0 mg/kg/injection, schedule: Q01DX001 (ip), vehicle: carboxymethylcellulose (CMC) 102 % of control | endpoint: mean survival time, dose: 200.0 mg/kg/injection, schedule: Q01DX001 (ip), vehicle: carboxymethylcellulose (CMC) 98 % of control | endpoint: mean survival time, dose: 400.0 mg/kg/injection, schedule: Q01DX001 (ip), vehicle: carboxymethylcellulose (CMC) 113 % of control

O=C(COc1cccc(Cl)c1)Nc1ccccc1
inactive: endpoint: mean survival time, dose: 100.0 mg/kg/injection, schedule: Q01DX009 (ip), vehicle: saline with Tween-80 94 % of control | endpoint: mean survival time, dose: 200.0 mg/kg/injection, schedule: Q01DX009 (ip), vehicle: saline with Tween-80 100 % of control | endpoint: mean survival time, dose: 400.0 mg/kg/injection, schedule: Q01DX009 (ip), vehicle: saline with Tween-80 89 % of control
